Marks after values point to notes of the source that are not given here.
System: intragastric pH
Assay: 24-h intragastric pH monitoring after single intravenous dexlansoprazole in healthy Chinese subjects
Type: in vivo, human
Settings: for AUCτ 1−τ 2pH−t: second AUC line
Protocol: Dexlansoprazole injection (30 mg per vial) used in the PK and PD study was manufactured by Nanjing Yoko Pharma Co., Ltd. (Nanjing, China). Subjects received an intravenous infusion of 20 or 30 mg dexlansoprazole injection in sterile saline solution (100 mL/h, 60 min). The study drug was administrated with an infusing pump (SA213, Lifepum, Beijing, China) and given through an intravenous catheter in the antecubital vein opposite to the one from which blood samples were taken.
An ambulatory pH recorder (Orion II, MMS, USA) with a disposable pH catheter (VersaFlex, MMS, USA) was used to monitor intragastric pH. The electrode was placed in water for at least 10 min and then calibrated using standard buffer solutions (pH 1.07 and 7.01) before intubation. Both calibration and intubation processes were conducted under the guidance of MMS Virtual Instructor Program. The catheter, trans nasally placed 10 cm under the lower esophageal sphincter, was identified by a sharp decrease in pH (Wang et al., [2010], [2011]). Subjects were intubated on baseline and the day of dosing at about 7:30 a.m., and the intragastric pH data were recorded continuously for 24 h from 8:00 a.m. Intragastric pH was sampled every second, and the data were stored in a MMS Database program (MMS, USA). The PD parameters including Median (pH), Mean (pH), TpH≥3 (%), TpH≥4 (%), TpH≥6 (%), TpH≥6, and AUC^pH−t were analyzed by the MMS Database program.
Median (pH) and mean (pH) were well-investigated in most studies, and the percentage time of pH ≥ 4 (or pH ≥ 4 holding time ratio) was the benchmark for predicting clinical efficacy of PPIs in treating acid-related diseases (Metz et al., [2009]). Novel parameter TpH≥6 (time to first gastric pH ≥ 6, min) and AUCτ 1-τ 2pH-t (area under pH-time curve from τ1 to τ2, pH·s) were defined to evaluate the velocity and extent of pharmacodynamics with more accuracy. All parameters were calculated and compared according to time periods of 0–24, 0–4, 4–10, 10–14, and 14–24 h post dosing.
The parameter AUCτ 1-τ 2pH-t was calculated as follows:
Where t represented the time duration measured by seconds, AUCτ 1-τ 210-t was the area between the pH line = 10 and the pH-time curve, which was generated by the MMS software.
Baseline-adjusted PD parameters were calculated as follows: for example, ΔAUC^pH−t = AUC^pH−t − AUC^pH−tbaseline, ΔMean (pH) = Mean (pH) − Mean (pH)^baseline, and ΔMedian (pH) = Median (pH) − Median (pH)^baseline.

[1] = 30 mg iv, H+/K+-ATPase Het (n = 10), 0–4 h
[2] = 30 mg iv, H+/K+-ATPase Het (n = 10), 0–24 h
[3] = 30 mg iv, H+/K+-ATPase Het (n = 10), 14–24 h
[4] = 30 mg iv, H+/K+-ATPase Hom (n = 10), 0–4 h
[5] = 30 mg iv, H+/K+-ATPase Hom (n = 10), 0–24 h
[6] = 30 mg iv, H+/K+-ATPase Hom (n = 10), 14–24 h
[7] = 30 mg iv, H+/K+-ATPase WT (n = 8), 0–4 h
[8] = 30 mg iv, H+/K+-ATPase WT (n = 8), 0–24 h
[9] = 30 mg iv, H+/K+-ATPase WT (n = 8), 14–24 h

SMILES: Cc1c(OCC(F)(F)F)ccnc1C[S@@+]([O-])c1nc2ccccc2[nH]1 [dexlansoprazole]
- ΔMedian (pH) [1]: 3.3 ± 2.0^c pH
- ΔTpH≥3(%) [1]: 52.6 ± 22.2%
- ΔTpH≥4 (%) [1]: 51.0 ± 20.6%
- ΔTpH≥6(%) [1]: 46.0 ± 33.2%
- Mean (pH) [2]: 5.9 ± 1.5 pH
- Median (pH) [2]: 6.0 ± 1.9 pH
- TpH≥3(%) [2]: 81.0 ± 20.9%
- TpH≥4(%) [2]: 74.9 ± 25.7%
- TpH≥6(%) [2]: 59.2 ± 25.9%
- ΔMean (pH) [2]: 3.0 ± 1.0^c pH
- ΔMedian (pH) [2]: 4.0 ± 1.6 pH
- ΔTpH≥3(%) [2]: 51.8 ± 14.2^c %
- ΔTpH≥4 (%) [2]: 54.9 ± 19.1^c %
- ΔTpH≥6(%) [2]: 47.2 ± 17.0^c %
- Mean (pH) [3]: 5.1 ± 1.9 pH
- Median (pH) [3]: 4.9 ± 2.3 pH
- TpH≥3(%) [3]: 72.0 ± 33.7%
- TpH≥4(%) [3]: 63.2 ± 38.0%
- TpH≥6(%) [3]: 41.0 ± 26.2%
- ΔMean (pH) [3]: 1.9 ± 0.9^c pH
- ΔMedian (pH) [3]: 2.1 ± 1.9^c pH
- ΔTpH≥3(%) [3]: 44.1 ± 21.3^c %
- ΔTpH≥4 (%) [3]: 37.7 ± 20.5^c %
- ΔTpH≥6(%) [3]: 17.4 ± 11.2^c %
- Mean (pH) [4]: 6.2 ± 0.8 pH
- Median (pH) [4]: 7.5 ± 0.6 pH
- TpH≥3(%) [4]: 78.0 ± 7.4%
- TpH≥4(%) [4]: 73.1 ± 12.6%
- TpH≥6(%) [4]: 70.3 ± 14.7%
- ΔMean (pH) [4]: 4.2 ± 0.3^a pH
- ΔMedian (pH) [4]: 5.8 ± 0.3^a^,^b pH
- ΔTpH≥3(%) [4]: 68.4 ± 8.6%
- ΔTpH≥4 (%) [4]: 67.5 ± 8.7%
- ΔTpH≥6(%) [4]: 67.9 ± 12.4%
- Mean (pH) [5]: 7.0 ± 0.6 pH
- Median (pH) [5]: 7.5 ± 0.6 pH
- TpH≥3(%) [5]: 95.7 ± 1.3%
- TpH≥4(%) [5]: 91.7 ± 4.9%
- TpH≥6(%) [5]: 80.2 ± 7.5%
- ΔMean (pH) [5]: 4.5 ± 0.7^a^,^b pH
- ΔMedian (pH) [5]: 5.5 ± 0.5^a pH
- ΔTpH≥3(%) [5]: 75.4 ± 7.6^a^,^b %
- ΔTpH≥4 (%) [5]: 79.9 ± 6.6^b %
- ΔTpH≥6(%) [5]: 75.3 ± 9.3^a^,^b %
- Mean (pH) [6]: 6.6 ± 0.8 pH
- Median (pH) [6]: 6.7 ± 1.1 pH
- TpH≥3(%) [6]: 98.5 ± 1.8%
- TpH≥4(%) [6]: 91.0 ± 10.4%
- TpH≥6(%) [6]: 66.9 ± 17.6%
- ΔMean (pH) [6]: 4.0 ± 1.1^b pH
- ΔMedian (pH) [6]: 4.7 ± 1.0^b pH
- ΔTpH≥3(%) [6]: 84.0 ± 9.1^a^,^b %
- ΔTpH≥4 (%) [6]: 80.9 ± 11.2^a^,^b %
- ΔTpH≥6(%) [6]: 59.2 ± 21.4^a^,^b %
- Mean (pH) [7]: 5.1 ± 1.4 pH
- Median (pH) [7]: 5.6 ± 2.0 pH
- TpH≥3(%) [7]: 69.5 ± 24.9%
- TpH≥4(%) [7]: 63.3 ± 26.8%
- TpH≥6(%) [7]: 46.8 ± 27.3%
- ΔMean (pH) [7]: 2.9 ± 1.0^c pH
- ΔMedian (pH) [7]: 3.5 ± 1.7^c pH
- ΔTpH≥3(%) [7]: 54.0 ± 28.3%
- ΔTpH≥4 (%) [7]: 53.6 ± 23.3%
- ΔTpH≥6(%) [7]: 42.6 ± 23.6%
- Mean (pH) [8]: 5.7 ± 0.9 pH
- Median (pH) [8]: 6.0 ± 1.1 pH
- TpH≥3(%) [8]: 81.1 ± 14.2%
- TpH≥4(%) [8]: 75.6 ± 17.1%
- TpH≥6(%) [8]: 57.1 ± 18.8%
- ΔMean (pH) [8]: 3.0 ± 1.0^c pH
- ΔMedian (pH) [8]: 3.7 ± 1.0^c pH
- ΔTpH≥3(%) [8]: 52.6 ± 21.0^c %
- ΔTpH≥4 (%) [8]: 57.3 ± 22.3%
- ΔTpH≥6(%) [8]: 51.2 ± 17.1^c %
- Mean (pH) [9]: 5.1 ± 1.3 pH
- Median (pH) [9]: 4.7 ± 1.7 pH
- TpH≥3(%) [9]: 70.7 ± 27.8%
- TpH≥4(%) [9]: 62.5 ± 31.5%
- TpH≥6(%) [9]: 43.7 ± 25.6%
- ΔMean (pH) [9]: 2.6 ± 1.3 pH
- ΔMedian (pH) [9]: 2.8 ± 1.7 pH
- ΔTpH≥3(%) [9]: 56.6 ± 27.3^c %
- ΔTpH≥4 (%) [9]: 50.7 ± 30.9^c %
- ΔTpH≥6(%) [9]: 33.3 ± 25.5^c %
- AUCτ 1−τ 2pH−t (20 mg iv, 0–4 h): 501 ± 268 pH·h
- AUCτ 1−τ 2pH−t (20 mg iv, 10–14 h): 784 ± 346 pH·h
- AUCτ 1−τ 2pH−t (20 mg iv, 14–24 h): 942 ± 632 pH·h
- AUCτ 1−τ 2pH−t (30 mg iv, 0–4 h): 793 ± 268 pH·h
- AUCτ 1−τ 2pH−t (30 mg iv, CYP2C19 EM (n = 11), 0–4 h): 762 ± 250 pH·h
- AUCτ 1−τ 2pH−t (30 mg iv, CYP2C19 EMs, H+/K+-ATPase Het (n = 8), 0–4 h): 531 ± 194^c pH·h
- AUCτ 1−τ 2pH−t (30 mg iv, CYP2C19 EMs, H+/K+-ATPase Het (n = 8), 14–24 h): 755 ± 198^c pH·h
- AUCτ 1−τ 2pH−t (30 mg iv, CYP2C19 EMs, H+/K+-ATPase WT (n = 6), 0–4 h): 817 ± 157 pH·h
- AUCτ 1−τ 2pH−t (30 mg iv, CYP2C19 EMs, H+/K+-ATPase WT (n = 6), 14–24 h): 968 ± 553^c pH·h
- AUCτ 1−τ 2pH−t (30 mg iv, CYP2C19 IM (n = 10), 0–4 h): 789 ± 405 pH·h
- AUCτ 1−τ 2pH−t (30 mg iv, CYP2C19 PM (n = 7), 0–4 h): 837 ± 235 pH·h
- AUCτ 1−τ 2pH−t [1]: 727 ± 297 pH·h
- AUCτ 1−τ 2pH−t [7]: 681 ± 248^c pH·h

Source: publication PMC5614982, “Impact of Gastric H^+/K^+-ATPase rs2733743 on the Intragastric pH-Values of Dexlansoprazole Injection in Chinese Subjects” (Frontiers in Pharmacology, 2017)
